Values of other authors, collected in patent US20250339408A1, “TREATMENT AND PREVENTION OF BASAL CELL CARCINOMA WITH TOPICAL COMPOSITION COMPRISING PATIDEGIB” (Sol-Gel Technologies Ltd., priority 2023, published 2025).

Test system: patients with Gorlin Syndrome
Conditions: oral drugs; with and without PTCH1 mutation; cited from earlier work

Row | SMILES | Effect in patients with Gorlin Syndrome (in words)
1 | CS(=O)(=O)c1ccc(C(=O)Nc2ccc(Cl)c(-c3ccccn3)c2)c(Cl)c1 [Vismodegib] | known to effect patients with Gorlin Syndrome, both with and without PTCH1 mutation
2 | Cc1c(C(=O)Nc2ccc(N3C[C@@H](C)O[C@@H](C)C3)nc2)cccc1-c1ccc(OC(F)(F)F)cc1 [Sonidegib] | known to effect patients with Gorlin Syndrome, both with and without PTCH1 mutation
